{"source": "patent US20110207655A1", "about": "“CYCLIC DEPSIPEPTIDE COMPOUND AND USE THEREOF” (Astellas Pharma Inc., priority 2008, published 2011)", "system": "Gq/11", "assay": "Inhibitory action on Gq/11: LTD4-induced cellular Ca2+ change in CHO cells stably expressing CysLTR2 (FLIPR)", "assay_type": "cell-based", "procedure": "The test was carried out according to the method of Non-Patent Citation 3, using a leukotriene receptor CysLTR2 (cysteinyl leukotriene receptor 2), which is known to activate Gq/11. CHO cells stably expressing CysLTR2 were seeded on a 96-well black/clear bottom plate (manufactured by Becton, Dickinson and Company) at 20,000 cells per well, and after 24 hours of seeding, the medium was discarded. Then, Hanks BSS (GIBCO Inc.) including 2 μM Fluo-4, AM (manufactured by Molecular Probe Co.), 0.004% pluronic acid, 1% FBS, 20 mM HEPES, and 2.5 mM probenecid was added thereto at 100 μL per well, followed by incubation at 37° C. for 1 hour. After incubation, the resultant was washed four times with Hanks BSS including 20 mM HEPES, and Hanks BSS including 20 mm HEPES per well was added thereto 100 μL per well. In addition, 50 μL of a test compound that had been diluted with Hanks BSS including 20 mM HEPES to a final concentration from 1×10^−10 M to 1×10^−5 M was added thereto, followed by being left to stand at room temperature for 30 minutes. The change of cellular Ca^2+ concentration after addition of leukotriene D4 (LTD4, manufactured by Cayman Co.), which is a CysLTR2 ligand, was measured over time using an FLIPR (Molecular Device Corp.). 50 μL it of leukotriene D4 that had been diluted with Hanks BSS including 20 mM HEPES to a final concentration of 10 nM at 10 seconds after the initiation of measurement was added thereto, fluorescence intensities were measured every second for 50 seconds and every sixth second for 2 minutes, and a maximum fluorescence intensity during a measurement time of 3 minutes was observed. By plotting the concentrations and the fluorescence intensities of the test compounds, the IC50 values were calculated, which were taken as Gq/11 inhibitory activities.", "key": {"[1]": {"settings": "read-out: Gq/11 inhibitory activities (IC50 values), 10 nM LTD4, maximum Fluo-4 fluorescence intensity"}}, "note": "Read-outs that look alike come from different tables or passages of the source. Starred links: 1 amine or outer side, 2 acyl side, 3 side chain; linkers in the order of their positions; H or OH if unused. Positions of bridges follow the written chain, without caps; N, C: chain ends. Non-standard residues stand in square brackets, D forms with d. Residues, ends and D or L forms follow the SMILES beside them. *: point of attachment. X8 = CC(=O)NC(C(=O)OC(C(C)C)C(N[*:1])C(=O)[*:2])C(O)C(C)C; X2 = CSCC(O)C(NC(C)=O)C(=O)OC(C(C)C)C(N[*:1])C(=O)[*:2]; X3 = CC(C)C(O[*:3])C(N[*:1])C(=O)[*:2]; X7 = O=C(C(Cc1ccccc1F)O[*:1])[*:2]; X4 = CCCC(=O)NC(C(=O)*)C(O)C(C)C; X5 = CSCC(=O)NC(C(=O)*)C(O)C(C)C; X6 = CCC(=O)NC(C(=O)*)C(O)C(C)C; PhLac = O=C(O)[CH](O)Cc1ccccc1; NMeT = CN[CH](C(=O)O)[CH](C)O; NMeA = CN[CH](C)C(=O)O; NMeDha = C=C(NC)C(=O)O"}
{"smiles": "C=C1C(=O)NC(C)C(=O)N(C)C(C)C(=O)NC(C(OC(=O)C(NC(C)=O)C(O)CSC)C(C)C)C(=O)N(C)C(C(C)OC)C(=O)OC(C)C(NC(C)=O)C(=O)OC(Cc2ccccc2)C(=O)N1C", "note": "(centres unmarked) [Ex4] (Ac-T[PhLac][NMeDha]A[NMeA][X2][NMeT](Me); ester 1-C; configuration not given here)", "values": [{"measurement": "IC50", "setting": "[1]", "result": 365, "unit": "nM"}]}
{"smiles": "C=C1C(=O)NC(C)C(=O)N(C)C(C)C(=O)NC(C(OC(=O)C(NC(=O)CCC)C(O)C(C)C)C(C)C)C(=O)N(C)C(C(C)OC)C(=O)OC(C)C(NC(C)=O)C(=O)OC(Cc2ccccc2)C(=O)N1C", "note": "(centres unmarked) [Ex1] (Ac-T[PhLac][NMeDha]A[NMeA][X3](X4)[NMeT](Me); ester 1-C; configuration not given here)", "values": [{"measurement": "IC50", "setting": "[1]", "result": 31, "unit": "nM"}]}
{"smiles": "C=C1C(=O)NC(C)C(=O)N(C)C(C)C(=O)NC(C(OC(=O)C(NC(C)=O)C(O)CSC)C(C)C)C(=O)N(C)C(C(C)OC)C(=O)OC(C)C(NC(C)=O)C(=O)OC(Cc2ccccc2)C(=O)N1C", "note": "(centres unmarked) [Ex3] (Ac-T[PhLac][NMeDha]A[NMeA][X2][NMeT](Me); ester 1-C; configuration not given here)", "values": [{"measurement": "IC50", "setting": "[1]", "result": 97, "unit": "nM"}]}
{"smiles": "C=C1C(=O)NC(C)C(=O)N(C)C(C)C(=O)NC(C(OC(=O)C(NC(C)=O)C(O)C(C)C)C(C)C)C(=O)N(C)C(C(C)O)C(=O)OC(C)C(NC(C)=O)C(=O)OC(Cc2ccccc2)C(=O)N1C", "note": "(centres unmarked) [Ex2] (Ac-T[PhLac][NMeDha]A[NMeA][X8][NMeT]; ester 1-C; configuration not given here)", "values": [{"measurement": "IC50", "setting": "[1]", "result": 317, "unit": "nM"}]}
{"smiles": "C=C1C(=O)NC(C)C(=O)N(C)C(C)C(=O)NC(C(OC(=O)C(NC(=O)CC)C(O)C(C)C)C(C)C)C(=O)N(C)C(C(C)OC)C(=O)OC(C)C(NC(C)=O)C(=O)OC(Cc2ccccc2)C(=O)N1C", "note": "(centres unmarked) [Ref 2] (Ac-T[PhLac][NMeDha]A[NMeA][X3](X6)[NMeT](Me); ester 1-C; configuration not given here)", "values": [{"measurement": "IC50", "setting": "[1]", "result": 34, "unit": "nM"}]}
{"smiles": "COC(C)C1C(=O)OC(C)C(NC(C)=O)C(=O)OC(Cc2ccccc2)C(=O)N(C)C(C)C(=O)NC(C)C(=O)N(C)C(C)C(=O)NC(C(OC(=O)C(NC(C)=O)C(O)C(C)C)C(C)C)C(=O)N1C", "note": "(centres unmarked) [Ref 7] (Ac-T[PhLac][NMeA]A[NMeA][X8][NMeT](Me); ester 1-C; configuration not given here)", "values": [{"measurement": "IC50", "setting": "[1]", "result": 32, "unit": "nM"}]}
{"smiles": "C=C1C(=O)NC(C)C(=O)N(C)C(C)C(=O)NC(C(OC(=O)C(NC(=O)CSC)C(O)C(C)C)C(C)C)C(=O)N(C)C(C(C)OC)C(=O)OC(C)C(NC(C)=O)C(=O)OC(Cc2ccccc2)C(=O)N1C", "note": "(centres unmarked) [Ref 3] (Ac-T[PhLac][NMeDha]A[NMeA][X3](X5)[NMeT](Me); ester 1-C; configuration not given here)", "values": [{"measurement": "IC50", "setting": "[1]", "result": 56, "unit": "nM"}]}
{"smiles": "C=C1C(=O)NC(C)C(=O)N(C)C(C)C(=O)NC(C(OC(=O)C(NC(C)=O)C(O)C(C)C)C(C)C)C(=O)N(C)C(C(C)OC)C(=O)OC(C)C(NC(C)=O)C(=O)OC(Cc2ccccc2F)C(=O)N1C", "note": "(centres unmarked) [Ref 5] (Ac-T[X7][NMeDha]A[NMeA][X8][NMeT](Me); ester 1-C; configuration not given here)", "values": [{"measurement": "IC50", "setting": "10 nM LTD4, maximum Fluo-4 fluorescence intensity, read-out: Gq/11 inhibitory activities (IC50 values)", "result": 25, "unit": "nM"}]}
